Results from US20250179061A1 (SIRONAX LTD., priority 2022, published 2025).

Each molecule was assayed on HT-29 cells (assay: HT-29 necroptosis cell viability assay (TNF-α/SMAC mimetic/zVAD-FMK, CellTiter-Glo)). Conditions: Homo sapiens, HT-29, HT-29 necroptosis cell viability, IC50 class symbols; read-out: Activity.
Assay type: cell-based
Method in brief: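 Necroptosis was triggered by TNF-α (10 ng/ml), SMAC mimetic (6 μM) and zVAD-FMK (10 μM) in serum-free medium during 20 h compound exposure (10 concentrations, threefold steps) of HT-29 cells. IC50 from duplicate dose-responses uses CellTiter-Glo ATP luminescence as viability read-out.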
With `CCOC1CN(c2cc(Oc3ccc(-n4ncn(Cc5c(F)cccc5F)c4=O)cc3F)c(F)cn2)C1` [Example 364, 4-(2,6-difluorobenzyl)-2-(4-((2-(3-ethoxyazetidin-1-yl)-5-fluoropyridin-4-yl)oxy)-3-fluorophenyl)-2,4-dihydro-3H-1,2,4-triazol-3-one] the IC50 was under 0.1 µM. `CCOC1CN(c2cc(Oc3ccc(-n4ncn(Cc5c(F)cccc5F)c4=O)cc3F)c(Cl)cn2)C1` [Example 365, 2-(4-((5-chloro-2-(3-ethoxyazetidin-1-yl)pyridin-4-yl)oxy)-3-fluorophenyl)-4-(2,6-difluorobenzyl)-2,4-dihydro-3H-1,2,4-triazol-3-one] showed an IC50 of under 0.1 µM. `COC1(C#N)CN(c2cc(Oc3ccc(-n4ncn(Cc5c(F)cccc5F)c4=O)cc3)ccn2)C1` [Example 366, 1-(4-(4-(4-(2,6-difluorobenzyl)-5-oxo-4,5-dihydro-1H-1,2,4-triazol-1-yl)phenoxy)pyridin-2-yl)-3-methoxyazetidine-3-carbonitrile] was tested, and the IC50 was under 0.1 µM. Work on `COC1(C#N)CN(c2cc(Oc3ccc(-n4ncn(Cc5c(F)cccc5F)c4=O)cc3F)ccn2)C1` [Example 367, 1-(4-(4-(4-(2,6-difluorobenzyl)-5-oxo-4,5-dihydro-1H-1,2,4-triazol-1-yl)-2-fluorophenoxy)pyridin-2-yl)-3-methoxyazetidine-3-carbonitrile] yielded an IC50 of under 0.1 µM. Molecule `C[C@H]1C[C@@H](NC(=O)OC(C)(C)C)CN1c1cc(Oc2ccc(-n3ncn(Cc4c(F)cccc4F)c3=O)cc2F)ccn1` [Example 368, tert-butyl ((3R,5S)-1-(4-(4-(4-(2,6-difluorobenzyl)-5-oxo-4,5-dihydro-1H-1,2,4-triazol-1-yl)-2-fluorophenoxy)pyridin-2-yl)-5-methylpyrrolidin-3-yl)carbamate] has an IC50 of 0.1 to 1 µM. `C[C@H]1C[C@@H](N)CN1c1cc(Oc2ccc(-n3ncn(Cc4c(F)cccc4F)c3=O)cc2F)ccn1` [Example 369, 2-(4-((2-((2S,4R)-4-amino-2-methylpyrrolidin-1-yl)pyridin-4-yl)oxy)-3-fluorophenyl)-4-(2,6-difluorobenzyl)-2,4-dihydro-3H-1,2,4-triazol-3-one] gave an IC50 of under 0.1 µM. `CCOC1CN(c2cc(Oc3ccc(-n4ncn(Cc5c(F)cccc5F)c4=O)cc3F)c(C)cn2)C1` [Example 370, 4-(2,6-difluorobenzyl)-2-(4-((2-(3-ethoxyazetidin-1-yl)-5-methylpyridin-4-yl)oxy)-3-fluorophenyl)-2,4-dihydro-3H-1,2,4-triazol-3-one] was tested, and the IC50 was under 0.1 µM. `CN(C)C1(C)CN(c2cc(Oc3ccc(-n4ncn(Cc5c(F)cccc5F)c4=O)cc3F)c(F)cn2)C1` [Example 371, 4-(2,6-difluorobenzyl)-2-(4-((2-(3-(dimethylamino)-3-methylazetidin-1-yl)-5-fluoropyridin-4-yl)oxy)-3-fluorophenyl)-2,4-dihydro-3H-1,2,4-triazol-3-one] showed an IC50 of 0.1 to 1 µM. Molecule `CC(C)(C)OC(=O)NC(C)(C)C1CN(c2cc(Oc3ccc(-n4ncn(Cc5c(F)cccc5F)c4=O)cc3F)c(F)cn2)C1` [Example 372, tert-butyl (2-(1-(4-(4-(4-(2,6-difluorobenzyl)-5-oxo-4,5-dihydro-1H-1,2,4-triazol-1-yl)-2-fluorophenoxy)-5-fluoropyridin-2-yl)azetidin-3-yl)propan-2-yl)carbamate] has an IC50 of under 0.1 µM. `CC(C)(C)OC(=O)NC[C@H]1CCN1c1cc(Oc2ccc(-n3ncn(Cc4c(F)cccc4F)c3=O)cc2F)c(F)cn1` [Example 373, tert-butyl (R)-((1-(4-(4-(4-(2,6-difluorobenzyl)-5-oxo-4,5-dihydro-1H-1,2,4-triazol-1-yl)-2-fluorophenoxy)-5-fluoropyridin-2-yl)azetidin-2-yl)methyl)carbamate] gave an IC50 of under 0.1 µM. For `CC(C)(N)C1CN(c2cc(Oc3ccc(-n4ncn(Cc5c(F)cccc5F)c4=O)cc3F)c(F)cn2)C1` [Example 374, 2-(4-((2-(3-(2-aminopropan-2-yl)azetidin-1-yl)-5-fluoropyridin-4-yl)oxy)-3-fluorophenyl)-4-(2,6-difluorobenzyl)-2,4-dihydro-3H-1,2,4-triazol-3-one], the IC50 was 0.1 to 1 µM. Work on `NC[C@H]1CCN1c1cc(Oc2ccc(-n3ncn(Cc4c(F)cccc4F)c3=O)cc2F)c(F)cn1` [Example 375, (R)-2-(4-((2-(2-(aminomethyl)azetidin-1-yl)-5-fluoropyridin-4-yl)oxy)-3-fluorophenyl)-4-(2,6-difluorobenzyl)-2,4-dihydro-3H-1,2,4-triazol-3-one] yielded an IC50 of under 0.1 µM. `C[C@H]1[C@H](NC(=O)OC(C)(C)C)CN1c1cc(Oc2ccc(-n3ncn(Cc4c(F)cccc4F)c3=O)cc2F)c(F)cn1` [Example 376, tert-butyl ((2S,3R)-1-(4-(4-(4-(2,6-difluorobenzyl)-5-oxo-4,5-dihydro-1H-1,2,4-triazol-1-yl)-2-fluorophenoxy)-5-fluoropyridin-2-yl)-2-methylazetidin-3-yl)carbamate] showed an IC50 of under 0.1 µM. `C[C@H]1[C@H](N)CN1c1cc(Oc2ccc(-n3ncn(Cc4c(F)cccc4F)c3=O)cc2F)c(F)cn1` [Example 377, 2-(4-((2-((2S,3R)-3-amino-2-methylazetidin-1-yl)-5-fluoropyridin-4-yl)oxy)-3-fluorophenyl)-4-(2,6-difluorobenzyl)-2,4-dihydro-3H-1,2,4-triazol-3-one] showed an IC50 of under 0.1 µM. In the case of `NC1(CO)CN(c2cc(Oc3ccc(-n4ncn(Cc5c(F)cccc5F)c4=O)cc3F)c(F)cn2)C1` [Example 378, 2-(4-((2-(3-amino-3-(hydroxymethyl)azetidin-1-yl)-5-fluoropyridin-4-yl)oxy)-3-fluorophenyl)-4-(2,6-difluorobenzyl)-2,4-dihydro-3H-1,2,4-triazol-3-one], the IC50 is reported as 0.1 to 1 µM. `O=c1n(Cc2c(F)cccc2F)cnn1-c1ccc(Oc2ccnc(N3CCC34CNC4)c2)cc1` [Example 379, 2-(4-((2-(1,6-diazaspiro[3.3]heptan-1-yl)pyridin-4-yl)oxy)phenyl)-4-(2,6-difluorobenzyl)-2,4-dihydro-3H-1,2,4-triazol-3-one] showed an IC50 of 0.1 to 1 µM. Molecule `O=c1n(Cc2c(F)cccc2F)cnn1-c1ccc(Oc2ccnc(N3CC4(CCNCC4)C3)c2)cc1` [Example 380, 2-[4-[[2-(2,7-diazaspiro[3.5]nonan-2-yl)-4-pyridyl]oxy]phenyl]-4-[(2,6-difluorophenyl)methyl]-1,2,4-triazol-3-one] has an IC50 of 0.1 to 1 µM. `N#CC1(CNc2cc(Oc3ccc(-n4ncn(Cc5c(F)cccc5F)c4=O)cc3)ccn2)CC1` [Example 381, 1-(((4-(4-(4-(2,6-difluorobenzyl)-5-oxo-4,5-dihydro-1H-1,2,4-triazol-1-yl)phenoxy)pyridin-2-yl)amino)methyl)cyclopropane-1-carbonitrile] was tested, and the IC50 was under 0.1 µM. Work on `C[C@@H]1CN(c2cc(Oc3ccc(-n4ncn(Cc5c(F)cccc5F)c4=O)cc3)ccn2)C[C@H](C)O1` [Example 382, 4-(2,6-difluorobenzyl)-2-(4-((2-((2R,6S)-2,6-dimethylmorpholino)pyridin-4-yl)oxy)phenyl)-2,4-dihydro-3H-1,2,4-triazol-3-one] yielded an IC50 of 0.1 to 1 µM. `CC1(C#N)CN(c2cc(Oc3ccc(-n4ncn(Cc5c(F)cccc5F)c4=O)cc3)ccn2)C1` [Example 383, 1-(4-(4-(4-(2,6-difluorobenzyl)-5-oxo-4,5-dihydro-1H-1,2,4-triazol-1-yl)phenoxy)pyridin-2-yl)-3-methylazetidine-3-carbonitrile] gave an IC50 of under 0.1 µM.
